Assay results published in ChEMBL document CHEMBL4251580, “Exploiting polypharmacology for improving therapeutic outcome of kinase inhibitors (KIs): An update of recent medicinal chemistry efforts” (Eur J Med Chem, 2018).

Columns and labels:
[1] = Inhibition of NF-kappaB (unknown origin) expressed in human U937 cells by luciferase reporter gene assay; assay type: cell-based; conditions: U-937
[2] = target: Epidermal growth factor receptor (Homo sapiens, UniProt P00533); experiment: Inhibition of C-terminal His-tagged and N-terminal GST tagged human EGFR (668 to 1210 residues) expressed in baculovirus infected Sf9 cells using KHKKLAEGSAYEEV substrate peptide and gamma-[32P]ATP
Epidermal growth factor receptor, sequence (P00533 whole entry, the tested form may be a part): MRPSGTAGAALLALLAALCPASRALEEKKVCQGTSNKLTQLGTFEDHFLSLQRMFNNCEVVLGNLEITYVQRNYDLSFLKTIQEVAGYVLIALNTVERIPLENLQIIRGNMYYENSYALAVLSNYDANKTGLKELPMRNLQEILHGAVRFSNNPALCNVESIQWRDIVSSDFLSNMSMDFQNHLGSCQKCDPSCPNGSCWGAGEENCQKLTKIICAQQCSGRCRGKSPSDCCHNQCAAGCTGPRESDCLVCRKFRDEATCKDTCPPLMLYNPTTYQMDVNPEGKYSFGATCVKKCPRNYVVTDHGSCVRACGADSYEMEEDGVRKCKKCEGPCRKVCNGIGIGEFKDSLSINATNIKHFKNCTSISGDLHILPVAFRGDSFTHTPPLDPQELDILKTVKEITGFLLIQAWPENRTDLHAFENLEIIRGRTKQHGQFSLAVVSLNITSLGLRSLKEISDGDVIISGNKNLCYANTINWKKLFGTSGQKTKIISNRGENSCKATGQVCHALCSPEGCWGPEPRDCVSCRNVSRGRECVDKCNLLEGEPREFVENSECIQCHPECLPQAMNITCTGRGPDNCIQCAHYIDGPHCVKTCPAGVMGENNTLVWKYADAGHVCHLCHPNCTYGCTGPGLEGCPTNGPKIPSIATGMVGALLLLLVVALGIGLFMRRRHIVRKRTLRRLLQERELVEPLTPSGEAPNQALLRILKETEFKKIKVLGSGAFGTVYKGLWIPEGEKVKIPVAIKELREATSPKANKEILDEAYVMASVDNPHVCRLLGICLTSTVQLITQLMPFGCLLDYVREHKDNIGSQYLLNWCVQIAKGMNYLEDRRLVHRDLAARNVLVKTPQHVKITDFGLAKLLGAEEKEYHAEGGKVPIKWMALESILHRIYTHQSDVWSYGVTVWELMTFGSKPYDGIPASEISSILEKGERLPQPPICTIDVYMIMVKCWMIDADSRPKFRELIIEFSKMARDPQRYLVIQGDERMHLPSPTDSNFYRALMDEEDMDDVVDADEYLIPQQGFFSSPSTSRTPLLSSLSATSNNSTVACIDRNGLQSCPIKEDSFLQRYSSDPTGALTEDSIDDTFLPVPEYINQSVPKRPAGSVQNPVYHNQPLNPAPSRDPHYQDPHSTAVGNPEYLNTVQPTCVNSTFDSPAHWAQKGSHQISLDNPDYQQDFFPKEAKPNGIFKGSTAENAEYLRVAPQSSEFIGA

MDA-MB-231 = experiment: Growth inhibition of human MDA-MB-231 cells incubated for 72 hrs by Cell-titer Glo luciferase-based assay; assay type: functional; conditions: MDA-MB-231, 72 h

IC50 [1]: 300 nM
IC50 [2]: 60 nM
GI50 (MDA-MB-231): 1100 nM
SMILES: Fc1cc(F)cc(NC(=S)Nc2ccc3ncnc(Nc4cccc(Br)c4)c3c2)c1
